In patent US8216551B2, “In vivo system to monitor tissue responses in birds” (The Board of Trustees of the University of Arkansas, priority 2008, dated 2012):

What was measured:
[1] = system: feather pulp; assay: Local tissue response to LPS or PHA injected into feathers and wing webs; format: in vivo, chicken; conditions: for composition of the infiltrate / MHC class II expression: 6 hours post-injection; for MHC class II expression: immunohistochemistry; for leukocyte infiltration: in vivo
[2] = system: feather pulp; assay: Local tissue response to injection of IFN-γ into growing feathers; format: in vivo, chicken; conditions: for mean score of extent of mononuclear infiltration: score 1=no infiltration

Molecule | composition of the infiltrate [1] | MHC class II expression [1] | leukocyte infiltration [1] | mean score of extent of mononuclear infiltration ([2]; 6 h post-injection, 5=extensive infiltration throughout the entire pulp) | mean score of extent of mononuclear infiltration ([2]; 1 day post-injection, 5=extensive) | mean score of extent of mononuclear infiltration ([2]; 2 days post-injection, 5=extensive) | mean score of extent of mononuclear infiltration ([2]; 3 days post-injection, 5=extensive) | histological analysis, cell infiltration into the feather pulp ([2]; by 6 h, preliminary)
lipopolysaccharide [LPS] | primarily of heterophils | noticeable increase | extensive leukocyte infiltration | – | – | – | – | –
phytohaemagglutinin [PHA] | heterophils and mononuclear cells | substantially increased | extensive leukocyte infiltration | – | – | – | – | –
IFN-γ: recombinant chicken IFN-γ (protein, UniProt P49708 20-164, looked up) Interferon gamma: HTASSLNLVQLQDDIDKLKADFNSSHSDVADGGPIIVEKLKNWTERNEKRIILSQIVSMYLEMLENTDKSKPHIKHISEELYTLKNNLPDGVKKVKDIMDLAKLPMNDLRIQRKAANELFSILQKLVDPPSFKRKRSQSQRRCNC | – | – | – | 1.6±0.1 | 4.0±0.5 | 3.2±0.6 | 3.0±0.9 | mononuclear cell infiltration into the feather pulp, but no granulocytes
